Test results as given in ChEMBL document CHEMBL1137443, “Preparation of 4-aryl-2-trifluoromethylbenzonitrile derivatives as androgen receptor antagonists for topical suppression of sebum production” (Bioorg Med Chem Lett, 2007).

Key:
[1] = biological target: T1, Androgen receptor (Homo sapiens, UniProt P10275); test: Displacement of [3H]DHT from human recombinant AR expressed in Sf9 cells
T1 sequence (P10275 whole entry): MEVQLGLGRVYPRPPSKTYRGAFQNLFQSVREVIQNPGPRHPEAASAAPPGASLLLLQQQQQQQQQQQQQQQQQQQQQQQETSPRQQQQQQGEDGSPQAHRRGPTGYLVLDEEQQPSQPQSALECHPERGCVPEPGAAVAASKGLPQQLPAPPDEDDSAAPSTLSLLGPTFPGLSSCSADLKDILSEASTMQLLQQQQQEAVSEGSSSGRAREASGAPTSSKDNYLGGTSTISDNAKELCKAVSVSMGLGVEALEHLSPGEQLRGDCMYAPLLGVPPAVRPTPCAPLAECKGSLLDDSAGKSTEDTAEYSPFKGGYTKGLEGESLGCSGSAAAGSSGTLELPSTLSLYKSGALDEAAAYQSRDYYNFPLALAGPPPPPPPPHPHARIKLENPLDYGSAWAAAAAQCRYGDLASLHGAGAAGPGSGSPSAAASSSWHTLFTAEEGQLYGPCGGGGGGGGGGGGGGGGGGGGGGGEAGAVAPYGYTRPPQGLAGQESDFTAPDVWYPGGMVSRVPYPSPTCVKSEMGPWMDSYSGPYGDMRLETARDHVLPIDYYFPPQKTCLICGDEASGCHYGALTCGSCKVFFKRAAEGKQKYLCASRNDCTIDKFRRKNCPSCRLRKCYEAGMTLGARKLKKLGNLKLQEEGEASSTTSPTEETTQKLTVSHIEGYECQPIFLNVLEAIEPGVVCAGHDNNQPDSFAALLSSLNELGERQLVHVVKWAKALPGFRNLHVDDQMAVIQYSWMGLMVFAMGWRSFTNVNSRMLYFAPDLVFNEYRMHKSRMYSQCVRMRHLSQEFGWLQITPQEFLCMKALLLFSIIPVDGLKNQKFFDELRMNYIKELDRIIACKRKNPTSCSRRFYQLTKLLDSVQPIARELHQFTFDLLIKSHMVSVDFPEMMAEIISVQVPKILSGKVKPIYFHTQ

[2] = biological target: T1, Androgen receptor; test: Antagonist activity at human AR in MDA-MB453-MMTV-luci cells by functional assay; format: cell-based
[3] = biological target: T2, Progesterone receptor (Homo sapiens, UniProt P06401); test: Binding affinity at human PR
T2 sequence (P06401 whole entry): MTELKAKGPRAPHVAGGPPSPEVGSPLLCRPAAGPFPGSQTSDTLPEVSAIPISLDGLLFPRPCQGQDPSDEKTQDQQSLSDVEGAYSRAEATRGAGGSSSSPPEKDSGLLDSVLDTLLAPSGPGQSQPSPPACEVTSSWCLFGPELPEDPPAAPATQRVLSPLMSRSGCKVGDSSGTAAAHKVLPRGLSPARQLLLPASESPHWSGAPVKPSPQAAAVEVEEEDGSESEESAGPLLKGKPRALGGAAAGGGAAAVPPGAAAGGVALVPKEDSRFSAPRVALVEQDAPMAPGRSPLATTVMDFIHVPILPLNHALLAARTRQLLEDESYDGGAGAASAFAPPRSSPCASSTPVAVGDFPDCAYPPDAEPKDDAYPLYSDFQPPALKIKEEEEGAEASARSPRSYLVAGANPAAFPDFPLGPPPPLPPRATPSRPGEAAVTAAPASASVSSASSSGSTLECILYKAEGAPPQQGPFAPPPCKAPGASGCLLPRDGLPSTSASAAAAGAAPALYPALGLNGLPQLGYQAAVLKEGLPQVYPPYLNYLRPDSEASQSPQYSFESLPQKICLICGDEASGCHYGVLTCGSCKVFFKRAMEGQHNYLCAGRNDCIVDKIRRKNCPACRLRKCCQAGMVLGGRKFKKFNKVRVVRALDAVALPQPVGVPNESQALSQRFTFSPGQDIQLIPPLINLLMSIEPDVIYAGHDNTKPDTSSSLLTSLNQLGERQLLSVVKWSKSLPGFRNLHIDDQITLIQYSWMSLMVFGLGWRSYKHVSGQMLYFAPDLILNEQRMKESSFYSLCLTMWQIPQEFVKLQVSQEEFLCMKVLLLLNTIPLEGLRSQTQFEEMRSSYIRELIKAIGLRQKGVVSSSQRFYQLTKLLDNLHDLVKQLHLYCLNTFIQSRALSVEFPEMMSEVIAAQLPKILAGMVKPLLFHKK

[4] = system: Syrian golden hamster; test: Reduction of wax ester in Golden Syrian hamster ear model relative to control; format: functional, Mesocricetus auratus; parameters: scale not given: the % may be the effect or the level left

Structure (SMILES) | IC50 [1] [nM] | IC50 [2] [nM] | IC50 [3] [nM] | Activity [4] [%]
N#Cc1ccc(-c2ccc(O)cc2)cc1C(F)(F)F | 61.2 | 11.9 | > 10000 | 
Cc1ccc(-c2ccc(C#N)c(C(F)(F)F)c2)cc1 | 200 | 843 |  | 
N#Cc1ccc(-c2ccccc2OCCO)cc1C(F)(F)F | 1540 |  |  | 
Cc1ccccc1-c1ccc(C#N)c(C(F)(F)F)c1 | 146 | > 1000 |  | 
COC(=O)COc1ccccc1-c1ccc(C#N)c(C(F)(F)F)c1 | 1310 |  |  | 
COc1cccc(-c2ccc(C#N)c(C(F)(F)F)c2)c1 | 955 | 140 | 9460 | 
N#Cc1ccc(-c2ccccc2Cl)cc1C(F)(F)F | 9.8 |  |  | 
COc1cccc(OC)c1-c1ccc(C#N)c(C(F)(F)F)c1 | 14.7 | 399 |  | 
COCCOCCOc1ccccc1-c1ccc(C#N)c(C(F)(F)F)c1 | 8140 |  |  | 
N#Cc1ccc(-c2ccccc2O)cc1C(F)(F)F | 39.9 | 0.02 | 4450 | 86
COc1ccccc1-c1ccc(C#N)c(C(F)(F)F)c1 | 37 | 20.1 | 3250 | 
COc1ccc(-c2ccc(C#N)c(C(F)(F)F)c2)cc1 | 56.7 | 0.8 | 5520 | 
N#Cc1ccc(-c2ccccc2OCC(=O)O)cc1C(F)(F)F | > 10000 |  |  | 
N#Cc1ccc(-c2ccccc2C(F)(F)F)cc1C(F)(F)F | 10.9 | > 1 |  | 
N#Cc1ccc(-c2c(O)cccc2O)cc1C(F)(F)F | 989 |  |  | 
N#Cc1ccc(-c2cccc(O)c2)cc1C(F)(F)F | 229 |  |  | 
COCCOc1ccccc1-c1ccc(C#N)c(C(F)(F)F)c1 | 2230 |  |  | 
CC1(C)C(=O)N(c2ccc(C#N)c(C(F)(F)F)c2)C(=O)N1CCCCO [RU-58841] |  |  |  | 95
Cc1cccc(-c2ccc(C#N)c(C(F)(F)F)c2)c1 | 1900 |  |  | 
